Source: patent EP0597303A2, “Cephalosporin derivatives” (priority 1992, dated 1994)
Where a name gives a salt, the structure may show the parent alone. Read-outs that look alike come from different tables or passages of the source.

What was measured:
Test in all cases: MIC, Agar (Mueller Hinton) Dilution Method
Format in all cases: cell-based
Staph. aureus ATCC 29213 = settings: Staphylococcus aureus, ATCC29213
Text: (§1) The in vitro activity of the compounds of formula I of the present invention as measured by the Minimum Inhibitory Concentration (MIC) in micrograms/ml utilizing the Agar (Mueller Hinton) Dilution Method against a variety of Gram-positive and Gram-negative organisms, is set forth in Table 1.

E. coli 4 = settings: Escherichia coli, 4
Text: as §1

Bacillus megaterium 164 = settings: Priestia megaterium
Text: as §1

Enter. cloacae 5699 = settings: Enterobacter cloacae, Gram Negative
Text: as §1

Ent. hirae ATCC 8043 = settings: Enterococcus hirae, ATCC8043, Gram Positive and Others
Text: as §1

E. coli DC-2 = settings: Escherichia coli, DC2, Gram Negative
Text: as §1

Klebsiella pneumoniae A = settings: Gram Negative
Text: as §1

E. coli ATCC 25922 = settings: Escherichia coli, ATCC25922
Text: as §1

[1] = system: Str. pneumoniae N82-012-MC; settings: Streptococcus pneumoniae, N82012MC
Text: as §1

Ps. aeruginosa K799/WT = settings: Pseudomonas aeruginosa, Gram Negative
Text: as §1

Prot. mirabilis 2 = settings: Proteus mirabilis
Text: as §1

Staph. aureus 82 = settings: Staphylococcus aureus
Text: as §1

Ps. aeruginosa B = settings: Pseudomonas aeruginosa, Gram Negative
Text: as §1

Staph. aureus 95 = settings: Staphylococcus aureus, 95
Text: as §1

Ps. aeruginosa 56 = settings: Pseudomonas aeruginosa, Gram Negative
Text: as §1

Ps. aeruginosa 18SH = settings: Pseudomonas aeruginosa, constitutive ß-lactamase producer, Gram Negative
Text: as §1

[2] = system: Citrobacter freundii BS-16; settings: BS16
Text: as §1

[3] = system: Staphylococcus aureus Smith
Text: as §1

Micrococcus luteus PCI = settings: Micrococcus luteus PCI; Gram Positive and Others; read-out: MIC
Text: as §1

Prot. mirabilis 90 = settings: Proteus mirabilis
Text: as §1

E. coli Leo HA2 = settings: Escherichia coli, LEOHA2, Gram Negative
Text: as §1

Ps. aeruginosa 8780 = settings: Pseudomonas aeruginosa, Gram Negative
Text: as §1

Staph. aureus 404 = settings: Staphylococcus aureus, 404
Text: as §1

Ps. aeruginosa K799/61 = settings: Pseudomonas aeruginosa; Ps. aeruginosa K799/61; Gram Negative; read-out: MIC
Text: as §1

E. coli 1573E = settings: Escherichia coli; E. coli 1573E; Gram Negative; read-out: MIC
Text: as §1

Staph. aureus 3647B = settings: Staphylococcus aureus, 3647B
Text: as §1

Prov. rettgeri ATCC 9250 = settings: Providencia rettgeri, ATCC9250, Gram Negative
Text: as §1

[4] = system: Proteus vulgaris ATCC 6380; settings: ATCC6380
Text: as §1

A. calcoaceticus PCI-3 = settings: Acinetobacter calcoaceticus, PCI3, Gram Negative
Text: as §1

E. coli 94 = settings: Escherichia coli, Gram Negative
Text: as §1

Staph. aureus 1059B = settings: Staphylococcus aureus, 1059B
Text: as §1

Ps. aeruginosa 1937E = settings: Pseudomonas aeruginosa, Gram Negative
Text: as §1

Staph. aureus ATCC 25923 = settings: Staphylococcus aureus, ATCC25923, Gram Positive and Others
Text: as §1

K. oxytoca 1082EN = settings: Klebsiella oxytoca; K. oxytoca 1082EN; Gram Negative; read-out: MIC
Text: as §1

Ent. faecalis ATCC 29212 = settings: Enterococcus faecalis, ATCC29212, Gram Positive and Others
Text: as §1

[5] = system: Streptococcus pneumoniae 6303
Text: as §1

E. coli 2008 E = settings: Escherichia coli
Text: as §1

Serratia marcescens SM = system: Serratia marcescens SM
Text: as §1

In the case of `N#CCC(=O)N[C@@H]1C(=O)N2C(C(=O)O)=C(COC(=O)N[C@H]3CCN(c4c(F)cc5c(=O)c(C(=O)O)cn(C6CC6)c5c4F)C3)CS[C@H]12` [Formula Iba, [6R-[3(S^*), 6 alpha, 7 beta]]-3-[[[[[1-(3-Carboxy-1-cyclopropyl-6,8-difluoro-1,4-dihydro-4-oxo-7-quinolinyl-3-pyrrolidinyl]-amino]carbonyl]oxy]methyl]-7-[(cyanoacetyl)amino]-8-oxo-5-thia 1-azabicyclo[4.2.0]oct-2-ene-2-carboxylic acid monosodium salt], the MIC (Staph. aureus ATCC 29213; Staph. aureus ATCC 29213, Gram Positive and Others, read-out: MIC) is reported as 0.0625 µg/mL, the MIC (E. coli 4) is reported as 0.0313 µg/mL and the MIC (Bacillus megaterium 164; 164) is reported as 0.0313 µg/mL. The MIC (Enter. cloacae 5699) was 0.0625 µg/mL, the MIC (Ent. hirae ATCC 8043) was 0.5 µg/mL and the MIC (E. coli DC-2) was 0.0625 µg/mL. It also gave an MIC (Klebsiella pneumoniae A) of 0.0625 µg/mL, an MIC (E. coli ATCC 25922) of 0.0313 µg/mL and an MIC [1] of 0.125 µg/mL. It also gave an MIC (Ps. aeruginosa K799/WT) of 0.5 µg/mL, an MIC (Prot. mirabilis 2; Prot. mirabilis 2, Gram Negative, read-out: MIC) of 0.0625 µg/mL and an MIC (Staph. aureus 82; Staph. aureus 82, Gram Positive and Others, read-out: MIC) of 0.0625 µg/mL. It also gave an MIC (Ps. aeruginosa B) of 0.25 µg/mL, an MIC (Staph. aureus 95) of 0.0313 µg/mL and an MIC (Ps. aeruginosa 56) of 0.25 µg/mL. The MIC (Ps. aeruginosa 18SH) was 0.25 µg/mL, the MIC ([2]; Citrobacter freundii BS-16, constitutive ß-lactamase producer, Gram Negative, read-out: MIC) was at most 0.0156 µg/mL and the MIC ([3]; Staphylococcus aureus Smith, Gram Positive and Others, read-out: MIC) was 0.0625 µg/mL. For the same molecule, the MIC (Micrococcus luteus PCI) was 0.0625 µg/mL, the MIC (Prot. mirabilis 90; 90) was 0.125 µg/mL and the MIC (E. coli Leo HA2) was at most 0.0156 µg/mL. It also gave an MIC (Ps. aeruginosa 8780) of 0.5 µg/mL, an MIC (Staph. aureus 404) of 0.0313 µg/mL and an MIC (Ps. aeruginosa K799/61) of 0.0625 µg/mL. The MIC (E. coli 1573E) was at most 0.0156 µg/mL, the MIC (Staph. aureus 3647B) was 0.0313 µg/mL and the MIC (Prov. rettgeri ATCC 9250) was 0.0625 µg/mL. It also gave an MIC ([4]; Proteus vulgaris ATCC 6380, constitutive ß-lactamase producer, Gram Negative, read-out: MIC) of 0.0625 µg/mL, an MIC (A. calcoaceticus PCI-3) of 0.0625 µg/mL and an MIC (E. coli 94) of 0.0313 µg/mL. It also gave an MIC (Staph. aureus 1059B) of 0.0313 µg/mL, an MIC (Ps. aeruginosa 1937E) of 0.25 µg/mL and an MIC (Staph. aureus ATCC 25923) of 0.0625 µg/mL. It also gave an MIC (K. oxytoca 1082EN) of at most 0.0156 µg/mL, an MIC (Ent. faecalis ATCC 29212) of 0.5 µg/mL and an MIC ([5]; Streptococcus pneumoniae, 6303) of 0.0313 µg/mL. The MIC (E. coli 2008 E; 2008E) was 0.0313 µg/mL and the MIC (Serratia marcescens SM; Serratia marcescens) was 0.125 µg/mL.
Molecule `N#CCC(=O)N[C@@H]1C(=O)N2C(C(=O)O)=C(COC(=O)N[C@@H]3CCN(c4c(F)cc5c(=O)c(C(=O)O)cn(C6CC6)c5c4F)C3)CS[C@H]12` [Formula Ibb, [6R-[3(R^*), 6 alpha, 7 beta]]-3-[[[[[1-(3-Carboxy-1-cyclopropyl-6,8-difluoro-1,4-dihydro-4-oxo-7-quinolinyl-3-pyrrolidinyi]amino]carbonyl]oxy]methyL]-7-[(cyanoacetyl)amino]-8-oxo-5-thia-1-azabicyclo[4.2.0]oct-2-ene-2-carboxylic acid monosodium salt] has an MIC (Staph. aureus ATCC 29213) of 0.125 µg/mL, an MIC (E. coli 4) of 0.125 µg/mL and an MIC (Bacillus megaterium 164; Bacillus megaterium 164, Gram Positive and Others, read-out: MIC) of 0.0625 µg/mL. It also gave an MIC (Enter. cloacae 5699) of 0.25 µg/mL, an MIC (Ent. hirae ATCC 8043) of 1 µg/mL and an MIC (E. coli DC-2) of 0.25 µg/mL. The MIC (Klebsiella pneumoniae A) was 0.25 µg/mL, the MIC (E. coli ATCC 25922; E. coli ATCC 25922, Gram Negative, read-out: MIC) was 0.0625 µg/mL and the MIC ([1]; Str. pneumoniae N82-012-MC, Gram Positive and Others, read-out: MIC) was 0.25 µg/mL. For the same molecule, the MIC (Ps. aeruginosa K799/WT) was 1 µg/mL, the MIC (Prot. mirabilis 2; 2) was 0.125 µg/mL and the MIC (Staph. aureus 82; 82) was 0.125 µg/mL. The MIC (Ps. aeruginosa B) was 1 µg/mL, the MIC (Staph. aureus 95) was 0.125 µg/mL and the MIC (Ps. aeruginosa 56) was 1 µg/mL. The MIC (Ps. aeruginosa 18SH) was 1 µg/mL, the MIC ([2]; Citrobacter freundii) was 0.0313 µg/mL and the MIC ([3]; Staphylococcus aureus) was 0.125 µg/mL. It also gave an MIC (Micrococcus luteus PCI) of 0.0625 µg/mL, an MIC (Prot. mirabilis 90; Prot. mirabilis 90, Gram Negative, read-out: MIC) of 0.5 µg/mL and an MIC (E. coli Leo HA2) of at most 0.0156 µg/mL. It also gave an MIC (Ps. aeruginosa 8780) of 2 µg/mL, an MIC (Staph. aureus 404) of 0.125 µg/mL and an MIC (Ps. aeruginosa K799/61) of 0.25 µg/mL. For the same molecule, the MIC (E. coli 1573E) was 0.0625 µg/mL, the MIC (Staph. aureus 3647B) was 0.125 µg/mL and the MIC (Prov. rettgeri ATCC 9250) was 0.25 µg/mL. For the same molecule, the MIC ([4]; Proteus vulgaris) was 0.125 µg/mL, the MIC (A. calcoaceticus PCI-3) was 0.5 µg/mL and the MIC (E. coli 94) was 0.125 µg/mL. The MIC (Staph. aureus 1059B) was 0.125 µg/mL, the MIC (Ps. aeruginosa 1937E) was 1 µg/mL and the MIC (Staph. aureus ATCC 25923) was 0.25 µg/mL. For the same molecule, the MIC (K. oxytoca 1082EN) was 0.0625 µg/mL, the MIC (Ent. faecalis ATCC 29212) was 2 µg/mL and the MIC ([5]; Streptococcus pneumoniae 6303, Gram Positive and Others, read-out: MIC) was 0.0625 µg/mL. For the same molecule, the MIC (E. coli 2008 E; E. coli 2008 E, Gram Negative, read-out: MIC) was 0.0625 µg/mL and the MIC (Serratia marcescens SM; Serratia marcescens SM, constitutive ß-lactamase producer, Gram Negative, read-out: MIC) was 0.25 µg/mL.
